The values below come from patent publication US20230220331A1, “TEMPORARY TREATMENT MEDIUM, TREATMENT KIT, EMBRYOGENESIS ARREST INHIBITOR, EMBRYOGENESIS ARREST INHIBITORY METHOD, DEVELOPMENTAL ENGINEERING PRODUCT PREPARATION METHOD, TRANSPLANTATION METHOD, THERAPEUTIC METHOD, AND DEVELOPMENTAL ENGINEERING PRODUCT” (priority 2020, published 2023).

Test [1] concerns two-cell stage embryo of a heterologous inbred SPR2 mouse. In words: Heterologous Tyr knockout mouse production (Treatment Example 8). It counts as cell-based, Mus spretus. Conditions: SPR2, Tyr KO. The procedure:
1. Up to 3 hours before TAKE, Y-27632-added mWM medium (Y-27632 final concentration 10 μM, an example of the “temporary treatment medium” of this example), Y-27632-free mWM medium (an example of “normal medium” of this example) were dropped into 35 mm Petri dishes by 5 drops, respectively, to prepare drops covered with paraffin oil.
2. Two-cell stage embryos were collected from the drops or thawed, placed in Y-27632-added mWM medium, and cultured for about 30 minutes to 1 hour (temporary treatment).
(§1) 3. After that, TAKE was performed.
4. After TAKE, the embryos were placed in Y-27632-added mWM medium and cultured for about 30 minutes to 1 hour (temporary treatment). Then, the embryos were placed in Y-27632-free mWM medium and cultured at 37° C. under 5% CO2 and 5% O2 conditions until transplantation.
By using a two-cell stage embryo of a heterologous inbred SPR2 mouse, four guide RNAs (crRNA: tracrRNA) for the Tyr gene were used about 100 ng/μL per RNA, for a total of about 400 ng/μL, and it was electroporated once or twice. Before and after electroporation, the embryos were cultured in the temporary treatment medium of this example.

Test [2] concerns immunodeficient mouse (nude) pronuclear stage embryos, BALB/c-nu. In words: Multi-gene knockout (BBOX1, IL2RG) in nude mouse embryos (Treatment Example 7). It counts as cell-based. As to the method:
1. Up to 3 hours before TAKE, Y-27632-added mWM medium (Y-27632 final concentration 10 μM, an example of the “temporary treatment medium” of this example) and Y-27632-free mWM medium (an example of “normal medium” of this example) were dropped into 35 mm Petri dishes by 5 drops, respectively, to prepare the drops covered with paraffin oil.
(§2) 2. Pronuclear stage embryos were collected from the drops, placed in Y-27632-added mWM medium, and cultured for about 30 minutes to 1 hour (temporary treatment).
as §1
4. After TAKE, the embryos were placed in Y-27632-added mWM medium and cultured for about 30 minutes to 1 hour (temporary treatment).
5. Then, the embryos were placed in Y-free mWM medium and cultured at 37° C. under 5% CO2 and (5% O2) conditions until the next day. If necessary, culture was continued or embryo transfer was performed in Y-27632-free mWM medium.
In this production example, a multi-gene KO mouse was prepared by using an immunodeficient mouse (nude, a nude mouse) embryo.
Specifically, a male of BALB/c-nu/nu and a female of BALB/c-nu/+ treated with ovarian hyperstimulation were crossed, and a pronuclear stage embryos were collected. The guide RNAs (crRNA: tracrRNA), which are two for the BBOX1 gene and two for the IL2RG gene, are electroporated at about 100 ng/μL per guide RNA, totaling about 400 ng/μL, are electroporated with 14 transfer pulses, and, before and after the electroporation, the embryos were cultured in the temporary treatment medium of this example.

For the next test, the system named is inbred mouse B6J embryos. In words: Generation of Flox inbred mice (individuals) by one-step method, high concentration ssODN (Treatment Example 11). It counts as cell-based. Conditions: floxed MK2 1STEP (HIGH CONCENTRATION). As to the method: Furthermore, in the same manner, the individual production is performed in an inbred mouse B6J strain by an electroporation method (1STEP method) by using a high concentration ssODN.

For test [3], the system named is Pronuclear stage embryos of C57BL/6J. Briefly: Knockout mouse production by electroporation (TAKE), Mk-3 gene (Treatment Example 1). Type of test: cell-based. The procedure:
The TAKE was carried out according to the method described in Patent Document 2.
1. By 3 hours before TAKE, Y-27632-added mWM medium (Y-27632 final concentration 10 μM, an example of the “temporary treatment medium” of this example) and Y-27632-free mWM medium (an example of “normal medium” of this example) were dropped on 35 mm Petri dish in 5 drops, respectively, to prepare the drops covered with paraffin oil.
as §2
3. After that, TAKE was performed. At the time of this TAKE, as described above, the pronuclear stage embryo, after washing, was transferred to a genome editing solution for TAKE or an Opti-MEM solution. The same applied to the following processing.
4. After TAKE, the embryos were placed in Y-27632-added mWM medium (temporary treatment) and cultured under 37° C., 5% CO2, and ([…]) conditions until the next day (1 hour or more and within 12 hours).
5. If necessary, culture was continued or embryo transfer was performed in Y-free mWM medium.
According to a typical method, in the afternoon when female mice and rats were mated with males with vasoligation and confirmed to be plugged, about 10 each were transplanted into the left and right oviducts or uterus of plug-confirmed mature female mice and rats. […]

Setting [4] is: of 4 surviving and 3 stillborn newborns analysed.

The structures appear in SMILES notation.

`C[C@@H](N)[C@H]1CC[C@H](C(=O)Nc2ccncc2)CC1` [Y-27632, trans-4-[(1R)-1-Aminoethyl]-N-4-pyrid inylcyclohexanecarboxamide]: the mosaics obtained in test [1] (electroporated once) amounted to 3. For the same molecule, the individuals obtained in test [1] (electroporated once, 20 embryos transplanted) was 7. Also, in test [1] (electroporated twice), the mosaics obtained came to 3 and the “whites (homo or compound heterozygote) obtained” value stood at 3. The molecule further yielded an individuals obtained in test [1] (electroporated twice, 13 embryos transplanted) of 7. This molecule showed a pups born in test [2] (BALB/c nude embryos, 4 guide RNAs about 400 ng/μL, 14 transfer pulses, 63 embryos transplanted) of 16. For the same molecule, in test [2] (setting [4]), the “analysed newborns with mutations” value is reported as 3 and the “analysed newborns with mutations in 2 genes” value was 1. Moreover, in the test with inbred mouse B6J embryos, the Flox individuals % is given as 16.7% and the “NUMBER OF FLOX INDIVIDUALS” value is 1/6. For the same molecule, in test [3] (C57BL/6J embryos cultured in Y-27632 medium before and after electroporation, Mk-3 knockout with two gRNAs, versus without Y-27632), the birth rate increased entry is given as “about 5 times”. Also, in test [3] (C57BL/6J, Mk-3 knockout, Y-27632 before and after electroporation), the “efficiency of non-homologous end joining (NHEJ)” value is recorded as “did not change”.
